For 13 compounds, IC50 results are on record in patent US20120183579A1, “COMPOUNDS FOR INFLAMMATION AND IMMUNE-RELATED USES” (Synta Pharmaceuticals Corp., priority 2008, published 2012).

Molecules are shown by their SMILES.

The test system of this assay is IL-2. The experiment in a line: Inhibition of IL-2 production (Jurkat cells activated with PHA, ELISA). The note with it: Homo sapiens, Jurkat, Jurkat/PHA/1% FBS; numeric values. Format: cell-based. On the procedure:
Jurkat cells were placed in a 96 well plate (0.5 million cells per well in 1% FBS medium), and then a test compound of this invention was added at different concentrations. After 10 minutes, the cells were activated with PHA (final concentration 2.5 μg/mL) and incubated for 20 hours at 37° C. under 5% CO2. The final volume was 200 μL. Following incubation, the cells were centrifuged, and the supernatants collected and stored at −70° C. prior to assaying for IL-2 production. A commercial ELISA kit (IL-2 Eli-pair, Diaclone Research, Besancon, France) was used to detect production of IL-2, from which dose response curves were obtained. The IC50 value was calculated as the concentration at which 50% of maximum IL-2 production after stimulation was inhibited versus a non-stimulation control.
On to `Cn1nnc(N2CCC(Cl)=C(c3ccc(NC(=O)c4c(F)cccc4F)cc3)C2)n1` [Compound 34, N-(4-(4-chloro-1-(2-methyl-2H-tetrazol-5-yl)-1,2,5,6-tetrahydropyridin-3-yl)phenyl)-2,6-difluorobenzamide], for which half-maximal inhibition (IC50) was put at 22 nM.

Regarding `CC1=C(c2cnc(NC(=O)c3ccccc3Cl)cn2)CN(c2nccnc2Cl)CC1` [Compound 35, 2-chloro-N-(5-(1-(3-chloropyrazin-2-yl)-4-methyl-1,2,5,6-tetrahydropyridin-3-yl)pyrazin-2-yl)benzamide], the 50% inhibitory concentration (IC50) was found to be 23 nM.

With `CC1=C(c2ccc(NC(=O)c3cnccc3C)cc2)CN(c2ncccc2F)CC1` [Compound 36, N-(4-(1-(3-fluoropyridin-2-yl)-4-methyl-1,2,5,6-tetrahydropyridin-3-yl)phenyl)-4-methylnicotinamide], the IC50 is 24 nM.

On to `CC1=C(c2ccc(NC(=O)c3cccc(F)c3C)nc2)CN(c2nnn(C)n2)CC1` [Compound 37, 3-fluoro-2-methyl-N-(5-(4-methyl-1-(2-methyl-2H-tetrazol-5-yl)-1,2,5,6-tetrahydropyridin-3-yl)pyridin-2-yl) benzamide], for which the half-maximal inhibitory concentration (IC50) stood at 24 nM.

Consider `CC1=C(c2cnc(NC(=O)c3c(F)cccc3F)cn2)CN(c2ccncc2F)CC1` [Compound 38, 2,6-difluoro-N-(5-(1-(3-fluoropyridin-4-yl)-4-methyl-1,2,5,6-tetrahydropyridin-3-yl)pyrazin-2-yl)benzamide], for which the IC50 was 26 nM.

Take `CC1=C(c2ccc(NC(=O)c3sccc3C)cc2)CN(c2nccs2)CC1` [Compound 39, 3-methyl-N-(4-(4-methyl-1-(thiazol-2-yl)-1,2,5,6-tetrahydropyridin-3-yl)phenyl)thiophene-2-carboxamide]: the midpoint of inhibition, the IC50, lay at 27 nM.

Compound `CC1=C(c2cnc(NC(=O)c3cc(F)ccc3F)cn2)CN(c2ncccc2F)CC1` [Compound 40, 2,5-difluoro-N-(5-(1-(3-fluoropyridin-2-yl)-4-methyl-1,2,5,6-tetrahydropyridin-3-yl)pyrazin-2-yl)benzamide] displayed an IC50 of 27 nM.

In turn, `CC1=C(c2ccc(NC(=O)c3ccncc3C)cc2)CN(c2ncccc2F)CC1` [Compound 41, N-(4-(1-(3-fluoropyridin-2-yl)-4-methyl-1,2,5,6-tetrahydropyridin-3-yl)phenyl)-3-methylisonicotinamide] gave an IC50 of 28 nM.

For the compound `CC1=C(c2cnc(NC(=O)c3cccc(F)c3C)cn2)CN(c2ncccc2F)CC1` [Compound 42, 3-fluoro-N-(5-(1-(3-fluoropyridin-2-yl)-4-methyl-1,2,5,6-tetrahydropyridin-3-yl)pyrazin-2-yl)-2-methylbenzamide], the IC50 was 28 nM.

`CC1=C(c2ccc(NC(=O)c3c(F)cc(F)cc3F)cc2)CN(c2ncccc2C#N)CC1` [Compound 43, N-(4-(1-(3-cyanopyridin-2-yl)-4-methyl-1,2,5,6-tetrahydropyridin-3-yl)phenyl)-2,4,6-trifluorobenzamide] had a half-maximal inhibitory concentration (IC50) of 31 nM.

With `CC1=C(c2cnc(NC(=O)c3c(F)cc(Br)cc3F)cn2)CN(c2ncccc2F)CC1` [Compound 44, 4-bromo-2,6-difluoro-N-(5-(1-(3-fluoropyridin-2-yl)-4-methyl-1,2,5,6-tetrahydropyridin-3-yl)pyrazin-2-yl) benzamide], the IC50 came out at 31 nM.

Regarding `CC1=C(c2ccc(NC(=O)c3c(C)cccc3F)cc2)CN(c2nnn(C)n2)CC1` [Compound 45, 2-fluoro-6-methyl-N-(4-(4-methyl-1-(2-methyl-2H-tetrazol-5-yl)-1,2,5,6-tetrahydropyridin-3-yl)phenyl) benzamide], the IC50 was 33 nM.

In turn, `COc1cccc(F)c1C(=O)Nc1cnc(C2=C(C)CCN(c3ncccc3F)C2)cn1` [Compound 46, 2-fluoro-N-(5-(1-(3-fluoropyridin-2-yl)-4-methyl-1,2,5,6-tetrahydropyridin-3-yl)pyrazin-2-yl)-6-methoxybenzamide] displayed an IC50 of 35 nM.
